Patent publication US20080200538A1, “Inhibition of Monocyte Survival, Differentiation, or Proliferation” (The Ohio State University Research Foundation, priority 2005, published 2008)

Key:
A549 cells = experiment: Cell viability assay (CellTiter 96 / MTT, A490); type: cell-based; conditions: A549, apigenin, 24 h; reduced to
Protocol: (§1) FIG. 1. Effect of apigenin and naringenin in cell survival of cancer cells. (A) Structure of the flavonoids apigenin and naringenin. (B) THP-1, U937, A549, and MCF-7 cells were treated with various doses of apigenin or naringenin for 24 h. After the treatment, the percentage of cell proliferation was calculated as the ratio of treated cells to control cells as determined by the MTT method (A490). Data represents means ±SEM (N=9). […] Cells were plated at a density of 2×10^4 cells/well into 96-well plates and treated with flavonoids at indicated concentrations for 24 h. Absorbance at 490 nm (A490) was recorded using an ELISA plate reader (Bio-Tek ELx800, KC Junior, Winooski, Vt.).

MCF-7 cells = experiment: Cell viability assay (CellTiter 96 / MTT, A490); type: cell-based; conditions: MCF-7, apigenin, 24 h; reduced to
Protocol: as §1

Akt = experiment: Western blot of Akt phosphorylation and total Akt in THP-1 cells; type: cell-based, human; conditions: THP-1, 50 μM apigenin
Protocol: FIG. 5. Apigenin affects Akt phosphorylation. THP-1 cells were treated with 50 μM apigenin for different lengths of time. Lysates were separated by SDS-PAGE, transferred and immunoblotted with anti-phospho-Akt (pSer 473), anti-phospho-Akt (pThr 308), total Akt, and â-tubulin antibodies.
FIG. 6. Apigenin induces the activation of p38 and inactivation of Akt. A. THP-1 cells were treated with 50 μM apigenin for various lengths of time. Lysates were separated by SDS-PAGE, transferred and analyzed by immunoblots with anti-phospho-p38 (pp 38) and anti-total-p38 antibodies. B. […] Lysates were analyzed by immunoblotting with anti-phospho-Akt (pSer 473), anti-phospho-p38 (p-p38), and anti-total-p38 antibodies.
Extracts from 3×10^6 cells were prepared by incubating cells for 30 min on ice in lysis buffer (50 mM Tris, 10 mM EDTA 0.5% NP-40, 10 mM Na-glycerophosphate, 5 mM Na-pyrophosphate, 50 mM NaF, 1 mM orthovanadate, 1 mM DTT, 0.1 mM PMSF, 2 μg/ml of protease inhibitors: chymostatin, pepstatin, antipain, and leupeptin). Cell lysates were centrifuged (14,000×g for 10 min at 4° C.) and the supernatants were stored for at −70° C. for future analysis. Equal amounts of protein were loaded and separated by SDS-PAGE, transferred onto nitrocellulose membranes and probed with antibodies of interest followed by horseradish peroxidase conjugated secondary antibody and visualized by enhanced chemiluminescence (Amersham, Arlington Heights, Ill.). Phospho-Ser473-Akt, phospho-Thr308-Alt, total AKT, phospho-p38 and total p38 antibodies were obtained from Cell Signaling (Boston, Mass.). â-tubulin antibody was obtained from Upstate (Charlottesville, Va.).

caspase-9 = experiment: Caspase-9 activity, LEHD-AFC assay, THP-1 lysates; type: cell-based, human; conditions: THP-1, 50 μM apigenin
Protocol: (§2) FIG. 3. Apigenin induces caspase activation in monocytic leukemia. THP-1 (top) and U937 (bottom) leukemia cells were treated for various lengths of time with 50 μM apigenin or DMSO (NT). (A and C) Caspase-9 activity was determined by the LEHDAFC assay. (B and D) Caspase-3 activity was determined by the DEVD-AFC assay. Data represents means ±SEM (N=3).
For measurements of caspase activity, cells were plated at a density of 1.5×10^6 cells/well. After treatment, cells extracts were prepared as previously described (Doseff, A. I., Baker J. H., Bourgeois T. A. and Wewers M. D. (2003) Interleukin-4-induced zpoptosis entails caspase activation and suppression of extracellular signal-regulated kinase phosphorylation. Am. J. Resp. Cell Mol. Biol., 29, 367-374). Protein extracts were incubated with 20 μM DEVD-AFC to determine caspase-3 activity or LEHD-AFC to determine caspase-9 activity (Enzyme Systems Products, Livermore, Calif.) in a cytobuffer as previously described (Doseff, A. I., Baker J. H., Bourgeois T. A. and Wewers M. D. (2003) Interleukin-4-induced zpoptosis entails caspase activation and suppression of extracellular signal-regulated kinase phosphorylation. Am. J. Resp. Cell Mol. Biol., 29, 367-374). Levels of released AFC were measured using Cytofluor 400 fluorimeter (Filters: excitation 400 nm, emission 508 nm; Perspective Co., Framingham, Mass.).

TNFα = TNFα release by LPS stimulated monocytes; type: cell-based
U937 cells = experiment: Cell viability assay (CellTiter 96 / MTT, A490); type: cell-based, human; conditions: 24 h, reduced to
Protocol: as §1

THP-1 cells = experiment: Cell viability assay (CellTiter 96 / MTT, A490); type: cell-based, human; conditions: THP-1, 50 to 500 μM apigenin, 24 h; reduced to
Protocol: as §1

IL-8 = IL-8 release by LPS stimulated monocytes; type: cell-based
p38 = experiment: Western blot of p38 phosphorylation in THP-1 cells; type: cell-based, human; conditions: THP-1, 50 μM apigenin, after 3 h
Protocol: A. THP-1 cells were treated with 50 μM apigenin for various lengths of time. Lysates were separated by SDS-PAGE, transferred and analyzed by immunoblots with anti-phospho-p38 (pp 38) and anti-total-p38 antibodies. B. THP-1 cells were treated for 6 hr with 50 μM apigenin alone (lane 2), treated with the apigenin diluent (lane 1), pretreatred with 10 or 25 μM SB203580 for 1 hr prior to the addition of apigenin (lanes 3 and 4) or with the SB203580 inhibitor alone (lanes 5 and 6).
Extracts from 3×10^6 cells were prepared by incubating cells for 30 min on ice in lysis buffer (50 mM Tris, 10 mM EDTA 0.5% NP-40, 10 mM Na-glycerophosphate, 5 mM Na-pyrophosphate, 50 mM NaF, 1 mM orthovanadate, 1 mM DTT, 0.1 mM PMSF, 2 μg/ml of protease inhibitors: chymostatin, pepstatin, antipain, and leupeptin). Cell lysates were centrifuged (14,000×g for 10 min at 4° C.) and the supernatants were stored for at −70° C. for future analysis. Equal amounts of protein were loaded and separated by SDS-PAGE, transferred onto nitrocellulose membranes and probed with antibodies of interest followed by horseradish peroxidase conjugated secondary antibody and visualized by enhanced chemiluminescence (Amersham, Arlington Heights, Ill.). […]

caspase-3 = experiment: Caspase-3 activity, DEVD-AFC assay, THP-1 lysates; type: cell-based, human; conditions: THP-1, 50 μM apigenin
Protocol: as §2
FIG. 4. Caspase-3 activation is required for apigenin-induced apoptosis. THP-1 cells were treated for 12 h with 50 μM apigenin alone or pretreated with 20 μM DEVD-FMK for 1 h prior to the addition of apigenin. (A) Cells were then stained with calcein AM and 24 PI and the percentage of apoptotic cells was determined. (B) Lysates from cells treated as described above were used to determined caspase-3 activity by the DEVD-AFC assay. All data represents means ±SEM (N=5).
FIG. 7. Apigenin induced p38 activation is not required for apoptosis. A. Cells were pretreated for 1 h prior to addition of 50 μM apigenin or DMSO (−) with 10 or 25 μM concentrations of SB203580 or DMSO (−) for 12 h. The percentage of apoptotic cells was determined by calcein AM with PI stained cells. Data represents means ±SEM (N=5 p>0.05). B. Lysates from the same treatments were used to determined caspase-3 activity by the DEVD-AFC assay. Data represents means ±SEM (N=5 p>0.05).
For measurements of caspase activity, cells were plated at a density of 1.5×10^6 cells/well. After treatment, cells extracts were prepared as previously described (Doseff, A. I., Baker J. H., Bourgeois T. A. and Wewers M. D. (2003) Interleukin-4-induced zpoptosis entails caspase activation and suppression of extracellular signal-regulated kinase phosphorylation. Am. J. Resp. Cell Mol. Biol., 29, 367-374). […] Levels of released AFC were measured using Cytofluor 400 fluorimeter (Filters: excitation 400 nm, emission 508 nm; Perspective Co., Framingham, Mass.).

## O=c1cc(-c2ccc(O)cc2)oc2cc(O)cc(O)c12 [apigenin]
A549 cells
  cell proliferation (ratio of treated to control cells): 80%
MCF-7 cells
  cell proliferation (ratio of treated to control cells): 80%
Akt; after six hours
  total Akt protein levels: dramatically decreased
Akt; during the first hour
  Akt pSer473 phosphorylation: rapid decrease
Akt; first six hours
  Akt pThr308 phosphorylation: not significantly affected
caspase-9
  caspase-9 activity, time course: observed after 6 h of treatment with apigenin and remained high after 9 h of treatment, decreasing after 12 h
TNFα
  release of TNFα: inhibits
U937 cells; U937, 50 μM apigenin
  cell proliferation (ratio of treated to control cells): 50%
U937 cells; U937, higher concentrations of apigenin (above 50 μM)
  cell proliferation (ratio of treated to control cells): 20%
THP-1 cells
  cell proliferation (ratio of treated to control cells): approximately 20%
IL-8
  release of IL-8: inhibits
p38
  phosphorylation of p38: increase
caspase-3
  caspase-3 activity, time course: detected after 6 h and similarly to caspase-9, the activity was sustained at 9 h, but decreased after 12 h
